The record followed here is patent EP2975030B1, “DIHYDROPYRIDAZINE-3,5-DIONE DERIVATIVE” (Chugai Seiyaku Kabushiki Kaisha, priority 2013, dated 2014).

Each structure is given as a SMILES string.

The subject of this assay is rat small-intestinal brush border membrane vesicles. The assay can be described thus: Inhibitory effect on 33PO4 uptake into rat small-intestinal brush border membrane vesicles (rapid filtration method). The assay is classed as biochemical, Wistar female rat. The settings on record: 1 µM test compound; 33PO4 uptake into rat small-intestinal BBMVs, 60 seconds. The gist of the method: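 Uptake was terminated by ice-cold 110 mM NaCl, 1 mM KH2PO4, 10 mM HEPES (pH 7.5) buffer and immediate suction filtration, then washing. Using rat small-intestinal BBMVs, retained 33PO4 was quantified by liquid scintillation counting as transport activity.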

`Cc1c(C#N)ncnc1-c1cc(C(F)(F)F)ccc1NC(=O)C1=C(O)C(C)(C)N(C)N(Cc2cccc(F)c2F)C1=O` [Example 311]: the “Rate of uptake inhibition (%) (1 µM)” value came out at 65%.
Turning to `C[C@]12CCCN1N(Cc1cccc(OC(F)(F)F)c1)C(=O)C(C(=O)Nc1ccc(C(F)(F)F)cc1-c1cc(C(F)(F)F)ncn1)=C2O` [Example 189], the “Rate of uptake inhibition (%) (1 µM)” value is listed as 73%.
Regarding `CSc1ccc(-c2cc(C(F)(F)F)ccc2NC(=O)C2=C(O)[C@@]3(C)CCCN3N(Cc3ccc(OCCCCOC[C@H](O)CO)c(F)c3F)C2=O)cn1` [Example 120], the “Rate of uptake inhibition (%) (1 µM)” value worked out at 66%.
Take `CN1[C@@H](C(C)(C)C)C(O)=C(C(=O)Nc2ccc(C(F)(F)F)cc2-c2ccc(C(F)(F)F)nc2)C(=O)N1Cc1cccc(F)c1F` [Example 238]: the “Rate of uptake inhibition (%) (1 µM)” value is 47%.
As for `Cc1c(-c2cc(C(F)(F)F)ccc2NC(=O)C2=C(O)C3(CCCC3)N(C)N(Cc3ccc(OCCN4CCOCC4)c(F)c3F)C2=O)ncnc1C(F)(F)F` [Example 290], the “Rate of uptake inhibition (%) (1 µM)” value amounted to 59%.
For `CN1N(Cc2ccc(OCCCCCOCCO)c(F)c2F)C(=O)C(C(=O)Nc2ccc(C(F)(F)F)cc2-c2cc(C(F)(F)F)ncn2)=C(O)C12CCCC2` [Example 397], the “Rate of uptake inhibition (%) (1 µM)” value is reported as 40%.
`C[C@]12CCCN1N(Cc1ccc(F)c(F)c1)C(=O)C(C(=O)Nc1ccc(C(F)(F)F)cc1-c1ccc(C(F)(F)F)nc1)=C2O` [Example 170]: the “Rate of uptake inhibition (%) (1 µM)” value was 73%.
As to `CN1N(Cc2ccc(OCCOCCNC(=O)[C@@H](O)[C@H](O)[C@@H](O)[C@@H](O)CO)c(F)c2F)C(=O)C(C(=O)Nc2ccc(C(F)(F)F)cc2-c2cc(C(F)(F)F)ncn2)=C(O)C12CCCC2` [Example 427, 7-[[2,3-Difluoro-4-[2-[2-[[(2S,3R,4S,5S)-2,3,4,5,6-pentahydroxyhexanoyl]amino]ethoxy]ethoxy]phenyl]methyl]-10-hydroxy-6-methyl-8-oxoN-[4-(trifluoromethyl)-2-[6-(trifluoromethyl)pyrimidin-4-yl]phenyl]-6,7-diazaspiro[4.5]dec-9-ene-9-carboxamide], the “Rate of uptake inhibition (%) (1 µM)” value worked out at 12%.
The result for `CN1N(Cc2ccc(OCCN3CCOCC3)c(F)c2F)C(=O)C(C(=O)Nc2ccc(C(F)(F)F)cc2-c2cc(C(F)(F)F)ncn2)=C(O)C12CCCCC2` [Example 295] reads 21%; that for `CN1N(Cc2ccc(OCCN3CCOCC3)c(F)c2F)C(=O)C(C(=O)Nc2ccc(Cl)cc2-c2ccc(C(F)(F)F)nc2)=C(O)C12CCCC2` [Example 288], 61%; that for `CN1N(Cc2ccc(OCCN3CCOC(C)(C)C3)c(F)c2F)C(=O)C(C(=O)Nc2ccc(C(F)(F)F)cc2-c2cc(C(F)(F)F)ncn2)=C(O)C12CCC2` [Example 342], 43%.
As for `C[C@]12CCCN1N(Cc1cccc(F)c1F)C(=O)C(C(=O)Nc1ccc(C(F)(F)F)cc1-c1cnc(N3CC4(COC4)C3)c(C#N)c1)=C2O` [Example 111, (4aR)-N-[2-[5-Cyano-6-(2-oxa-6-azaspiro[3.3]heptan-6-yl)pyridin-3-yl]-4-(trifluoromethyl)phenyl]-1-[(2,3-difluorophenyl)methyl]-4-hydroxy-4a-methyl-2-oxo-6,7-dihydro-5H-pvrrolo[1,2-b]pyridazine-3-carboxamide], the “Rate of uptake inhibition (%) (1 µM)” value turned out to be 56%.
The result for `COC(=O)c1cccc(-c2cc(C(F)(F)F)ccc2NC(=O)C2=C(O)[C@@]3(C)CCCN3N(Cc3cccc(F)c3F)C2=O)c1OC` [Example 65] reads 98%; that for `CN1N(Cc2cccc(F)c2F)C(=O)C(C(=O)Nc2cc(F)c(Br)c(F)c2)=C(O)C12CCC2` [Example 257], 71%; that for `CN1N(Cc2cccc(F)c2F)C(=O)C(C(=O)Nc2ccc(C(F)(F)F)cc2-c2cncc(C(F)(F)F)c2)=C(O)C1(C)C` [Example 305], 66%.
Turning to `COc1c(C#N)ncnc1-c1cc(C(F)(F)F)ccc1NC(=O)C1=C(O)[C@@]2(C)CCCN2N(Cc2cccc(F)c2F)C1=O` [Example 25], the “Rate of uptake inhibition (%) (1 µM)” value is 82%.
For the molecule `CN(CCOc1ccc(CN2C(=O)C(C(=O)Nc3ccc(C(F)(F)F)cc3-c3cc(C(F)(F)F)ncn3)=C(O)C3(CCCC3)N2C)c(F)c1F)C1CCOC1` (centres unmarked) [Example 366], the “Rate of uptake inhibition (%) (1 µM)” value is reported as 38%.
In the case of `CN1[C@@H](C(C)(C)C)C(O)=C(C(=O)Nc2ccc(Cl)cc2-c2ccc(C(F)(F)F)nc2)C(=O)N1Cc1cccc(F)c1F` [Example 239], the “Rate of uptake inhibition (%) (1 µM)” value was 48%.
As to `C[C@]12CCCN1N(Cc1ccccc1)C(=O)C(C(=O)Nc1ccc(C(F)(F)F)cc1-c1cc(C(F)(F)F)ncn1)=C2O` [Example 188], the “Rate of uptake inhibition (%) (1 µM)” value is on record as 93%.
Regarding `C[C@]12CCCN1N(Cc1ccc(F)cc1)C(=O)C(C(=O)Nc1ccc(C(F)(F)F)cc1-c1ccc(C(F)(F)F)nc1)=C2O` [Example 199], the “Rate of uptake inhibition (%) (1 µM)” value is recorded as 79%.
With `C[C@]12CCCN1N(Cc1cc(F)cc(F)c1)C(=O)C(C(=O)Nc1ccc(C(F)(F)F)cc1-c1ccc(C(F)(F)F)nc1)=C2O` [Example 171], the “Rate of uptake inhibition (%) (1 µM)” value stood at 78%.
As for `CN1N(Cc2ccc(OCCOCCOCCOCCNC(=O)[C@@H](O)[C@H](O)[C@@H](O)[C@@H](O)CO)c(F)c2F)C(=O)C(C(=O)Nc2ccc(C(F)(F)F)cc2-c2cc(C(F)(F)F)ncn2)=C(O)C12CCCC2` [Example 428, 7-[[2,3-Difluoro-4-[2-[2-[2-[2-[[(2S,3R,4S,5S)-2,3,4,5,6-pentahydroxyhexanoyl]amino]ethoxy]ethoxy]ethoxy]ethoxy]phenyl]methyl]-10-hydroxy-6-methyl-8-oxo-N-[4-(trifluoromethyl)-2-[6-(trifluoromethyl)pyrimidin-4-yl]phenyl]-6,7-diazaspiro[4.5]dec-9-ene-9-carboxamide], the “Rate of uptake inhibition (%) (1 µM)” value is reported as 14%.
As for `CN1N(Cc2ccc(OCCN3CCN(S(C)(=O)=O)CC3)c(F)c2F)C(=O)C(C(=O)Nc2ccc(C(F)(F)F)cc2-c2cc(C(F)(F)F)ncn2)=C(O)C12CCCC2` [Example 379], the “Rate of uptake inhibition (%) (1 µM)” value was determined as 137%.
As to `C[C@]12CCCN1N(Cc1c(F)cccc1Cl)C(=O)C(C(=O)Nc1ccc(C(F)(F)F)cc1-c1ccc(C(F)(F)F)nc1)=C2O` [Example 204], the “Rate of uptake inhibition (%) (1 µM)” value stood at 87%.
The result for `C[C@]12CCCN1N(Cc1cccc(F)c1F)C(=O)C(C(=O)Nc1cc(F)c(Br)c(F)c1)=C2O` [Example 29] reads 75%; that for `C[C@]12CCCN1N(Cc1cccc(F)c1F)C(=O)C(C(=O)Nc1ccc(C(F)(F)F)cc1-c1cnc(C#N)c([N+](=O)[O-])c1)=C2O` [Example 99, (4aR)-N-[2-(6-Cyano-5-nitropyridin-3-yl)-4-(trifluoromethyl)phenyl]-1-[(2,3-difluorophenyl)methyl]-4-hydroxy-4a-methyl-2-oxo-6,7-dihydro-5H-pyrrolo[1,2-b]pyridazine-3-carboxamide], 82%.
As to `CCN(CCN(C)CCOC)c1ccc(CN2C(=O)C(C(=O)Nc3ccc(C(F)(F)F)cc3-c3cc(C(F)(F)F)ncn3)=C(O)C3(CCCC3)N2C)c(F)c1F` [Example 443], the “Rate of uptake inhibition (%) (1 µM)” value came to 28%.
For `CN1N(Cc2ccc(OCCCCOC[C@H](O)CO)c(F)c2F)C(=O)C(C(=O)Nc2ccc(C(F)(F)F)cc2-c2ccc(C(F)(F)F)nc2)=C(O)C12CCC2` [Example 384], the “Rate of uptake inhibition (%) (1 µM)” value is 39%.
As to `CN1N(Cc2ccc(OCCCCCOCCCO)c(F)c2F)C(=O)C(C(=O)Nc2ccc(C(F)(F)F)cc2-c2cc(C(F)(F)F)ncn2)=C(O)C12CCCC2` [Example 400], the “Rate of uptake inhibition (%) (1 µM)” value is reported as 36%.
As to `C[C@]12CCCN1N(Cc1cccc(F)c1F)C(=O)C(C(=O)Nc1ccc(C(F)(F)F)cc1-c1cnc(Br)cn1)=C2O` [Example 73], the “Rate of uptake inhibition (%) (1 µM)” value is recorded as 74%.
For `CN1N(Cc2ccc(OC(C)(C)CN3CCOCC3)c(F)c2F)C(=O)C(C(=O)Nc2ccc(C(F)(F)F)cc2-c2cc(C(F)(F)F)ncn2)=C(O)C12CCC2` [Example 407, 6-[[2,3-Difluoro-4-(2-methyl-1-morpholin-4-ylpropan-2-yl)oxyphenyl]methyl]-9-hydroxy-5-methyl-7-oxo-N-[4-(trifluoromethyl)-2-[6-(trifluoromethyl)pyrimidin-4-yl]phenyl]-5,6-diazaspiro[3.5]non-8-ene-8-carboxamide], the “Rate of uptake inhibition (%) (1 µM)” value worked out at 30%.
The result for `CN1N(Cc2ccc(OCCN3CCC(N4CCOCC4)CC3)c(F)c2F)C(=O)C(C(=O)Nc2ccc(C(F)(F)F)cc2-c2cc(C(F)(F)F)ncn2)=C(O)C12CCCC2` [Example 374] reads 42%; that for `CN1N(Cc2cccc(F)c2F)C(=O)C(C(=O)Nc2ccc(C(F)(F)F)cc2-c2ncnc(C#N)c2Cl)=C(O)C1(C)C` [Example 312], 74%; that for `CN1[C@@H](C(C)(C)C)C(O)=C(C(=O)Nc2ccc(Br)c(C(F)(F)F)c2)C(=O)N1Cc1cccc(F)c1F` [Example 243], 63%.
`CSc1ccc(-c2cc(C(F)(F)F)ccc2NC(=O)C2=C(O)C3(CCCC3)N(C)N(Cc3ccc(OCCN4CCOCC4)c(F)c3F)C2=O)cn1` [Example 289]: the “Rate of uptake inhibition (%) (1 µM)” value is on record as 55%.
The result for `CN(CCO)CCOc1ccc(CN2C(=O)C(C(=O)Nc3ccc(C(F)(F)F)cc3-c3cc(C(F)(F)F)ncn3)=C(O)C3(CCCC3)N2C)c(F)c1F` [Example 373] reads 27%; that for `COc1cc(-c2cc(C(F)(F)F)ccc2NC(=O)C2=C(O)[C@@]3(C)CCCN3N(Cc3cccc(F)c3F)C2=O)cnc1C#N` [Example 114, (4aR)-N-[2-(6-Cyano-5-methoxypyridin-3-yl)-4-(trifluoromethyl)phenyl]-1-[(2,3-difluorophenyl)methyl]-4-hydroxy-4a-methyl-2-oxo-6,7-dihydro-5H-pyrrolo[1,2-b]pyridazine-3-carboxamide], 86%.
`Cc1cccc(CN2C(=O)C(C(=O)Nc3ccc(C(F)(F)F)cc3-c3ccc(C(F)(F)F)nc3)=C(O)[C@@]3(C)CCCN23)c1F` [Example 205]: the “Rate of uptake inhibition (%) (1 µM)” value is 86%.
